{"source": "patent US20100255080A1", "about": "“Liposomal ALA pharmaceutical and cosmeceutical compositions and methods of treatment” (SESVALIA USA, LLC, priority 2009, published 2010)", "origin": "cited, not measured here", "conditions": "printed as the pH near the pka", "data": [{"smiles": "Cl.NCC(=O)CCC(=O)O", "note": "[ALA, 5-aminolevulinic acid]", "values": [{"measurement": "pka", "value": "about 4"}]}]}
